Test results from patent publication US11458132B2, “Quinolin-2(1H)-one inhibitors of Late SV40 Factor” (TRUSTEES OF BOSTON UNIVERSITY, priority 2020, dated 2022).
Blank lines part the entries; values can stand above or below the compound they belong to.

Tests used:
[1] = Plasma protein binding (PPB), mouse; assay type: in vitro ADME
[2] = Plasma protein binding (PPB), human; assay type: in vitro ADME
[3] = tested on: Huh7 cells; assay: Growth inhibition curves in Huh7 cells; assay type: cell-based; details: Homo sapiens, Huh-7
[4] = molecular target: T1, LSF and β-catenin (Homo sapiens, UniProt Q12800); assay: Immunoprecipitation of β-catenin probed for LSF in CRC cells; assay type: cell-based; details: 1 μM, 16 hours, HT-29 and HCT-116 cells
T1 construct: In both these cell lines, LSF co-immunoprecipitated with β-catenin; endogenous in cells; host or cells: HT-29 and HCT-116
T1 sequence (Q12800 1-502): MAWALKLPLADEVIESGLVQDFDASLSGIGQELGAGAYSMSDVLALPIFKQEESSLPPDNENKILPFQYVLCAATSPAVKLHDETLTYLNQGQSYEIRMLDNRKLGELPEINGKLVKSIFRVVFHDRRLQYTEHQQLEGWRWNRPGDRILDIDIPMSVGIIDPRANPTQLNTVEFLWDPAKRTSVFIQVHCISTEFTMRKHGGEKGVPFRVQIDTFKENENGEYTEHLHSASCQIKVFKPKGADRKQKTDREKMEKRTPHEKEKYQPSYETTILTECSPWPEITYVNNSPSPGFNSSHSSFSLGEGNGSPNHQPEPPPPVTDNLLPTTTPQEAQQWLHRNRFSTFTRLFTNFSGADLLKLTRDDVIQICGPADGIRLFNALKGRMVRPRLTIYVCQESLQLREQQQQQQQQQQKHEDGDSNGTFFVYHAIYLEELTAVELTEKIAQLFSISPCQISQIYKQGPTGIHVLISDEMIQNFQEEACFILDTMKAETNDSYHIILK
From the text: Immunoprecipitation: The CRC cells were harvested. Proteins of interest were immunoprecipitated using the indicated antibodies at 1:100 concentration. The eluents were resolved by SDS polyacrylamide gel electrophoresis and probed with the indicated antibodies. All the antibodies for immunoblot and immunoprecipitation were acquired from Cell Signaling and were used at the recommended concentrations.

[5] = tested on: FH-B cells; assay: Microtubule sedimentation assay; assay type: cell-based, human; details: for microtubule stability and α-tubulin acetylation in the microtubule fraction: 4 μM FQI1 (15- and 30-minute pellets), 1 μM nocodazole or taxol 30 minutes
Description: (§1) Cell lysate preparation: For microtubule sedimentation assays, cells were treated as indicated in the figure legends, washed with PBS and incubated in 250 μl of microtubule sedimentation assay lysis buffer (100 mM PIPES pH 6.8, 2 M glycerol, 2 mM EGTA, 5 mM MgCl2, 0.1% Triton X-100) supplemented with 1 μM taxol, protease inhibitor cocktail (1:200, Abcam, ab201111) and phosphatase inhibitor cocktail (1:100, Abcam, ab201115) for 20 minutes at 37° C. Two hundred μl of scraped lysate was centrifuged at 21,000×g for 10 minutes at room temperature. Supernatants were saved as soluble fractions. Pellets were resuspended in 200 μl RIPA buffer (50 mM Tris HCl pH 8.0, 150 mM NaCl, 1% IGEPAL CA630, 0.05% deoxycholic acid) supplemented with 1.05% SDS, protease inhibitor cocktail (1:200) and phosphatase inhibitor cocktail (1:100) and incubated at 100° C. for 15 minutes. Pellet suspensions were centrifuged as before and supernatants were saved as pellet fractions.
(§2) Gel electrophoresis and immunoblotting: Microtubule sedimentation fractions and MLC2 analysis samples were separated by electrophoresis through tris-glycine and tricine polyacrylamide gels, respectively, which were transferred to PVDF membranes. Membranes with microtubule sedimentation fractions and MLC2 analysis samples were blocked in 5% milk in TBST and in 5% BSA in TBST, respectively. After overnight incubation with primary antibody at 4° C., the membranes were washed and incubated with secondary antibody for 1 hour at room temperature. Primary antibodies included anti-α-tubulin (1:2,000, Thermo Fisher Scientific, PA529444), anti-acetylated tubulin (1:1,000, Sigma-Aldrich, T7451), anti-phospho MYL9 (1:200, Thermo Fisher Scientific, PA517727), and anti-β-actin (1:5,000, Sigma-Aldrich, A1978). Secondary antibodies included Goat anti-Rabbit HRP (Thermo Fisher Scientific, 31460; 1:10,000 for anti-α-tubulin; 1:5,000 for anti-phospho MYL9), and Goat anti-Mouse HRP (Thermo Fisher Scientific, 62-6520; 1:5,000 for anti-acetylated tubulin; 1:10,000-1:20,000 for anti-β-actin). Membranes were placed into Pierce™ ECL Western Blotting Substrate (Thermo Fisher Scientific, 32106). Autoradiography film was exposed to each membrane for various times to ensure acquisition of non-saturated exposures. Band intensities were quantified from scanned films by densitometry using ImageJ.

[6] = tested on: RPE cells; assay: Microtubule sedimentation assay; assay type: cell-based; details: for microtubule stability and α-tubulin acetylation in the microtubule fraction: 4 μM FQI1 (15- and 30-minute pellets), 1 μM nocodazole or taxol 30 minutes
Description: as §1, §2

[7] = tested on: RPE cells; assay: Cell spreading area and circularity by microscopy; assay type: cell-based; details: 4 μM FQI1 or 1 μM nocodazole, 1 hour
Description: (§3) Cells were washed as before, treated with Phalloidin-iFluor 488 Reagent (abcam, ab176753) for 1 hour in 1-5% BSA in PBS, followed by Hoechst 33342 (Thermo Fisher Scientific, H3570) for 5 minutes. Mounting medium (Fisher Scientific, P10144) and cover slips were applied onto dried cells. Individually discernible cells were imaged on an Olympus Fluoview 10i. Using ImageJ, the phalloidin channel was thresholded and area and circularity values were measured and integrated into swarmplots using Python's seaborn library.

[8] = tested on: RPE cells; assay: Wound healing assay; assay type: cell-based; details: 4 μM FQI1 or 1 μM nocodazole, monitored 12 hours
Description: Wound healing analysis: Confluent RPE cells were synchronized by incubating with 2 mM thymidine for 18-20 hours. Two intersecting lines were drawn into the confluent cells using a pipette tip. A phase-contrast image was acquired of the intersection point (“0 h” time-point) on an Olympus IX50 inverted microscope, immediately followed by treatment with the respective inhibitor and 2 mM thymidine. Phase-contrast images of the intersection point were acquired every 2 hours for 12 hours, continuing incubation at 37° C. in 5% CO2 in-between time points. Using ImageJ, the distances between each pair of neighboring vertices of the intersection point at each time-point were measured and normalized to the “0 h” sample.
RPE-hTERT Flp-In cells, propagated in DME M:F12 media with 10% fetal bovine serum at 37° C. in a 5% CO2 humidified incubator, were grown to confluence in 6-well tissue culture plates. One day prior to performing the wound healing assay, the medium was exchanged to also include 2 mM thymidine, so that the cells would stop dividing.
A cross-shaped wound was scratched into each well, and the cells imaged by phase contrast microscopy using at 4× magnification using a Olympus IX50 Inverted microscope. Then the cell media was exchanged to include vehicle (DMSO at 0.01%), 50 nM FQI2-34, 100 nM FQI2-34, or 200 nM FQI2-34; 2 mM thymidine was maintained throughout, as well. Cells were imaged again at 2 h, 4h, 6h, and 8h, in order to measure the migration of the cells into the wound.
Each of the 4 lines across the vertices of the “X” were individually measured from each set of images using ImageJ. Relative distances of cell migration into the wound were obtained by subtracting each of the lengths for 2-8 hour timepoints from the length at the 0 hour timepoint for that line and that sample. The averages of the four changes in lengths per sample were then plotted over time for each concentration of FQI2-34, from […], using Prism software. Triplicate technical replicates were performed for each concentration.

[9] = tested on: FH-B cells; assay: Cell spreading area / cell compaction by microscopy; assay type: cell-based, human; details: 1 μM nocodazole, 30-60 minutes
Description: as §3
For time lapse microscopy, FH-B cells in high μ-dishes were incubated with CellBrite™ Steady Membrane stain (Biotium, 30108-T) for 30-40 minutes in the environmental chamber of a Nikon C2 Si microscope at 37° C. and 5% CO2. Treatments were added to the cells through a syringe to reach final concentrations of 4 μM FQI1 or 0.01% DMSO. Immediately thereafter, a time-lapse series was acquired by imaging every 30 seconds for 30 minutes at 20× magnification.

[10] = tested on: RhoA/ROCK pathway in FH-B cells; assay: Phospho-MLC2 immunoblot (RhoA/ROCK pathway); assay type: cell-based, human; details: 1 μM taxol 30 minutes, then 4 μM FQI1 10 minutes
Description: For analysis of phosphorylated MLC2, FH-B cells were treated as indicated in the figure legend, washed with PBS and incubated for 5 minutes in lysis buffer (50 mM Tris-HCl pH 8.0, 50 mM NaF, 5 mM MgCl2, 150 mM NaCl, 1% Triton X-100) supplemented with Tricine Sample Buffer (Bio-rad, 1610739), protease inhibitor cocktail (1:200), phosphatase inhibitor cocktail (1:100), and 1% ([…]. Lysates were incubated at 100° C. for 15 minutes and centrifuged at 21,000×g for 10 minutes prior to SDS-PAGE.
as §2, with “Secondary antibodies included Goat anti-Rabbit HRP (Thermo Fisher Scientific, 31460; 1:10,000 for anti-α-tubulin; 1:5,000 for anti-phospho MYL9), and Goat anti-Mouse HRP (Thermo Fisher Scientific, 62-6520; 1:5,000 for anti-acetylated tubulin; 1:10,000-1:20,000 for anti-β-actin). Membranes were placed into Pierce™ ECL Western Blotting Substrate (Thermo Fisher Scientific, 32106). Autoradiography film was exposed to each membrane for various times to ensure acquisition of non-saturated exposures.” left out

[11] = 10 μM Y-27632 30 minutes, then 4 μM FQI1 30 minutes

fraction unbound [1]: 0.06 | fraction unbound [2]: 0.08 | GI50 [3]: 14.2 nM
Structure (SMILES): CCOc1cc(N(C)C)ccc1-c1cc(=O)[nH]c2cc3c(cc12)OCCO3 [FQI2-37, 9-(4-(dimethylamino)-2-ethoxyphenyl)-2,3-dihydro-[1,4]dioxino[2,3-g]quinolin-7(6H)-one]

GI50 [3]: 260 nM
Structure (SMILES): CCCOc1cc(N(C)C)ccc1-c1cc(=O)[nH]c2cc3c(cc12)OCO3 [FQI2-134, 8-(4-(dimethylamino)-2-propoxyphenyl)-[1,3]dioxolo[4,5-g]quinolin-6(5H)-one]

GI50 [3]: 71 nM
Structure (SMILES): CCCOc1cc(N(C)C)ccc1-c1cc(=O)[nH]c2cc3c(cc12)OCCO3 [FQI2-137, 9-(4-(dimethylamino)-2-propoxyphenyl)-2,3-dihydro-[1,4]dioxino[2,3-g]quinolin-7(6H)-one]

GI50 [3]: 20.4 nM
Structure (SMILES): CCOc1cc(Br)ccc1-c1cc(=O)[nH]c2cc3c(cc12)OCO3 [FQI2Br, 8-(4-bromo-2-ethoxyphenyl)-[1,3]dioxolo[4,5-g]quinolin-6(5H)-one]

GI50 [3]: 56.2 nM
Structure (SMILES): CCOc1cc(Cl)ccc1-c1cc(=O)[nH]c2cc3c(cc12)OCO3 [FQI2Cl, 8-(2-ethoxy-4-chlorophenyl)-[1,3]dioxolo[4,5-g]quinolin-6(5H)-one]

GI50 [3]: 56.2 nM
Structure (SMILES): CCOc1cc(C(F)(F)F)ccc1-c1cc(=O)[nH]c2cc3c(cc12)OCO3 [FQI2F3, 8-(2-ethoxy-4-(trifluoromethyl)phenyl)-[1,3]dioxolo[4,5-g]quinolin-6(5H)-one]

GI50 [3]: 56.2 nM
Structure (SMILES): CCOc1cc(F)ccc1-c1cc(=O)[nH]c2cc3c(cc12)OCO3 [FQI2F, 8-(2-ethoxy-4-fluorophenyl)-[1,3]dioxolo[4,5-g]quinolin-6(5H)-one]

GI50 [3]: 141 nM
Structure (SMILES): CCOc1ccccc1-c1cc(=O)[nH]c2cc3c(cc12)OCO3 [FQI2]

More lines, now with the values behind:

Structure (SMILES): CC(C)COc1cc(N(C)C)ccc1-c1cc(=O)[nH]c2cc3c(cc12)OCO3 [FQI2-234, 8-(4-(dimethylamino)-2-isobutoxyphenyl)-[1,3]dioxolo[4,5-g]quinolin-6(5H)-one]
GI50 [3]: 630 nM

Structure (SMILES): CC(C)COc1cc(N(C)C)ccc1-c1cc(=O)[nH]c2cc3c(cc12)OCCO3 [FQI2-237, 9-(4-(dimethylamino)-2-isobutoxyphenyl)-2,3-dihydro-[1,4]dioxino[2,3-g]quinolin-7(6H)-one]
GI50 [3]: 467 nM

Structure (SMILES): CCOc1cc(N(C)C)ccc1C1CC(=O)Nc2cc3c(cc21)OCO3 (stereo not shown) [FQI-34, 8-(4-(dimethylamino)-2-ethoxyphenyl)-7,8-dihydro-[1,3]dioxolo[4,5-g]quinolin-6(5H)-one]
fraction unbound [1]: 0.05 | fraction unbound [2]: 0.07 | interaction of LSF and β-catenin (co-immunoprecipitation) [4]: consistently reduced this interaction

Structure (SMILES): CCOc1cc(N(C)C)ccc1C1CC(=O)Nc2cc3c(cc21)OCCO3 (stereo not shown) [FQI-37, 9-(4-(dimethylamino)-2-ethoxyphenyl)-2,3,8,9-tetrahydro-[1,4]dioxino[2,3-g]quinolin-7(6H)-one]
fraction unbound [1]: 0.05 | fraction unbound [2]: 0.07 | interaction of LSF and β-catenin (co-immunoprecipitation) [4]: consistently reduced this interaction

Structure (SMILES): C[C@@H](N)[C@H]1CC[C@H](C(=O)Nc2ccncc2)CC1 [Y-27632]
FQI1-induced decline in stable microtubules after Y-27632 pre-exposure [5, 11]: quantitatively the same decline in stable microtubules as seen in control cells | FQI1-induced decline in stable microtubules after Y-27632 pre-exposure [6, 11]: quantitatively the same decline in stable microtubules as seen in control cells

Structure (SMILES): COC(=O)Nc1nc2ccc(C(=O)c3cccs3)cc2[nH]1 [nocodazole, reference compound]
microtubule stability and α-tubulin acetylation in the microtubule fraction [5]: destabilizes and deacetylates microtubules | microtubule stability and α-tubulin acetylation in the microtubule fraction [6]: destabilizes and deacetylates microtubules | circularity [7]: significantly more circular in shape | migration of cells into the wound [8]: hindered RPE cells from migrating into the wound | decrease in cell spreading area [9]: decrease in cell spreading area was phenocopied

Structure (SMILES): CC(=O)O[C@H]1C(=O)[C@@]2(C)[C@H]([C@H](OC(=O)c3ccccc3)[C@]3(O)C[C@H](OC(=O)[C@H](O)[C@@H](NC(=O)c4ccccc4)c4ccccc4)C(C)=C1C3(C)C)[C@]1(OC(C)=O)CO[C@@H]1C[C@@H]2O [taxol]
microtubule stability and α-tubulin acetylation in the microtubule fraction [5]: stabilizes and hyperacetylates microtubules | FQI1-induced increase in MLC2 phosphorylation after taxol preincubation [10]: abrogated | microtubule stability and α-tubulin acetylation in the microtubule fraction [6]: stabilizes and hyperacetylates microtubules
